The test system of data set [1] is choroidal neovascularization. Nature of the data set: Choroidal neovascularization model with Alzet osmotic pump. Format: in vivo. The note with it: versus vector (vehicle) alone.
Data set [2] can be described thus: Serum concentration in the choroidal neovascularization experiment. Format: in vivo. To be noted: choroidal neovascularization model, Alzet osmotic pump.
The subject of data set [3] is VEGF. In words: VEGF ELISA on supernatants of ARPE-19 cells under hypoxia. Format: cell-based. To be noted: Homo sapiens, ARPE-19, hypoxia 24 hours, read-out: IC50 VEGF expression. The method, then:
(§1) ARPE-19 was cultured in DMEM/F-12 medium supplemented with 10% heat-inactivated FBS, penicillin (100 U/mL), and streptomycin (100 ug/mL). Cells were grown in incubator with humidified atmosphere containing 5% CO2 at 37° C. To induce hypoxia conditions, cells are placed in a Billups-Rothenberg modular incubator chamber and flushed with artificial atmosphere gas mixture (5% carbon dioxide, 1% oxygen, and balance nitrogen). The hypoxia chamber was then placed in a 37° C. incubator.
(§2) APRE-19 cells were plated in two 96-well plates at a confluence of 80% and cultured overnight. The next day, a series dilution of BNC4 (100, 50, 25, 12.5, 6.25, 3.13, 1.56, 0.78, 0 nM) was added into cultures. […] Supernatants were collected for ELISAs and cells were saved for MTS assay (MTS assay readouts was used in normalizing cell numbers). […] Affection curves (BNC4 on secretion of angiogenesis proteins) and their IC50s were generated by plotting the average normalized absorbance (450 nm minus 540nm) for each treatment on Y axis versus the corresponding BNC4 concentrations on X axis using software XLfit 4.1.
(§3) ELISAs were then performed on the APRE-19 cells treated with BNC4 and incubated under normal or hypoxia conditions as described above. […] Supernatants were collected for ELISAs and cells were saved for MTS assay (MTS assay readouts was used in normalizing cell numbers). […]
A general note: In an ELISA, binding on a coated surface is turned into a signal by an enzyme label.

Data set [4] has as its system TIMP-1. Nature of the data set: TIMP-1 ELISA on supernatants of ARPE-19 cells under hypoxia. The note with it: Homo sapiens, ARPE-19, hypoxia 24 hours, read-out: IC50 TIMP-1 expression. It is filed as cell-based. The method, then:
as §1, §2, §3

Data set [5] concerns cancer cell lines. Nature of the data set: Proliferation of cancer cell lines. It is filed as cell-based.
The test system of data set [6] is HIF-1α. Nature of the data set: HIF-1α Western blot in ARPE-19 cells under hypoxia. Format: cell-based, human. How it is done:
Samples were fractionated on 3-8% Tris-Acetate gel (Invitrogen NUPAGE system) by sodium dodecyl sulfate (SDS)-polyacrylamide gel electropherosis and transferred onto nitrocellulose membrane. […] Anti-Beta-actin monoclonal antibody (Abcam, ab6276-100) was used at a 1:5000 dilution with a 30-minute incubation at room temperature.

Data set [7] has as its system angiogenin. In words: Angiogenin ELISA on supernatants of ARPE-19 cells under hypoxia. It is filed as cell-based. To be noted: Homo sapiens, ARPE-19, hypoxia 24 hours, read-out: IC50 angiogenin expression. How it is done:
as §1, §2, §3

The conditions of data set [8]: cited from earlier work; for max. plasma concentration: in vivo.

The structures appear in SMILES notation. pIC50: −log10 of the molar value. Like-named read-outs stand apart in the source and are kept apart here.

The pIC50 is the negative decadic logarithm of the IC50, by convention in mol/L. In the case of `C[C@@H]1O[C@@H](O[C@@H]2C=C3CC[C@@H]4[C@H](CC[C@]5(C)[C@@H](c6ccc(=O)oc6)CC[C@]45O)[C@@]3(C)CC2)[C@H](O)[C@H](O)[C@H]1O` [BNC4, proscillaridin], the “area of choroidal neovascularization” value in data set [1] is recorded as “reduced the area of choroidal neovascularization”. The compound also showed a serum concentration in data set [2] of 60 ng/mL. Besides, the results for the pIC50 in data set [3], in data set [4] and in data set [7] were 7.49, 7.89 and 8.35, respectively. The “decrease of the concentration effective for inhibiting proliferation of cancer cells by combination” value in data set [5] turned out to be 5 fold. The “inhibition of hypoxia-mediated HIF-1α induction” value in data set [6] (ARPE-19 cells, hypoxia, western blot (FIG. 1)) is reported as “inhibit hypoxia-mediated HIF-1α induction”. Further, the “potency relative to BNC1 in inhibiting HIF-1α expression” value in data set [6] (human retinal pigment epithelial cells) is “about 10 times”. Further, the plasma half-life entry in data set [8] (human, according to the literature) was “about 40 hours”. Besides, the max. plasma concentration entry in data set [8] was “about 0.1 μg/mL”.

On to `C[C@@H]1O[C@@H](O[C@H]2C[C@@H](O)[C@]3(CO)[C@H]4[C@H](O)C[C@]5(C)[C@@H](C6=CC(=O)OC6)CC[C@]5(O)[C@@H]4CC[C@]3(O)C2)[C@H](O)[C@H](O)[C@H]1O` [BNC1, ouabain], for which the “area of choroidal neovascularization” value in data set [1] was “reduced the area of choroidal neovascularization”. In addition, the serum concentration in data set [2] stood at 20 ng/mL. Also, in data set [5] (combination with steroid signal modulator (Casodex)), the “decrease of the concentration effective for inhibiting proliferation of cancer cells by combination” value came out at 5 fold. In addition, the max. plasma concentration entry in data set [8] is “about 0.03 μg/mL”.
